Experimental findings from US9957264B2 (Merck Sharp & Dohme Corp., priority 2013, dated 2018) are described below.

The target in assay [1] is JAK1 (recombinant purified GST-tagged catalytic domain) (Homo sapiens (Human), UniProt P23458). In words: Jak Biochemical HTRF Assay (JAK1). The following applies: [ATP] 31.8 μM. In short, it runs like this:
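Phosphorylation of a common biotinylated peptide by each catalytic domain is measured by HTRF. The ATP-started reaction runs 120 min at room temperature before EDTA quench and detection.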
Background: In TR-FRET formats the signal depends on donor and acceptor labels being close together.

For assay [2], the target named is JAK2 (recombinant purified GST-tagged catalytic domain) (Homo sapiens (Human), UniProt O60674). The assay is described as follows: Jak Biochemical HTRF Assay (JAK2). Particulars: [ATP] 8.5 μM.
Chain of JAK2 (recombinant purified GST-tagged catalytic domain) (O60674 849-1124): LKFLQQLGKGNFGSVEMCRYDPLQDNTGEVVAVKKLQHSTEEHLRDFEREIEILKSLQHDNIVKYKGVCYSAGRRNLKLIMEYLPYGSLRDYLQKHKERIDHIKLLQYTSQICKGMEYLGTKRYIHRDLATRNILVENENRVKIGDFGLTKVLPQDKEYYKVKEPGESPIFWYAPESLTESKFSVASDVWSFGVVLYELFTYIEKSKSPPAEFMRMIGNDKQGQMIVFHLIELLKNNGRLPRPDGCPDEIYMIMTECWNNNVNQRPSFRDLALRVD

Chain of JAK1 (recombinant purified GST-tagged catalytic domain) (P23458 875-1153): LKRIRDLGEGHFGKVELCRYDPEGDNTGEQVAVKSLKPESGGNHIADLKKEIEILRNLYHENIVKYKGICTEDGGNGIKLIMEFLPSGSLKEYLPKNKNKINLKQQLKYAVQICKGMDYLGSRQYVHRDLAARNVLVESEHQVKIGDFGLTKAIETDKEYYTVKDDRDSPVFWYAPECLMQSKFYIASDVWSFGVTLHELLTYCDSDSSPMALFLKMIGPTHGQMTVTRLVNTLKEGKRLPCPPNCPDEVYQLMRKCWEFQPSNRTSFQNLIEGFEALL

What is called IC50 is the concentration that gives 50% inhibition. Turning to `Cc1cc(Nc2nn([C@]3(CC#N)CC[C@@H](C(=O)OC(C)(C)C)OC3)c3cc[nH]c(=O)c23)ccc1C(=O)N1CCCC1` [Example 20-7, (2S,5S)-tert-butyl 5-(cyanomethyl)-5-(3-((3-methyl-4-(pyrrolidine-1-carbonyl)phenyl)amino)-4-oxo-4,5-dihydro-1H-pyrazolo[4,3-c]pyridin-1-yl)tetrahydro-2H-pyran-2-carboxylate], the IC50 stood at 0.09 nM in assay [1] and 0.36 nM in assay [2].

As to `CC(C)(C)N1Cc2cc(Nc3nn([C@]4(CC#N)CCOC4)c4cc[nH]c(=O)c34)ccc2S1(=O)=O` (single isomer, unassigned) [Example 5-248, (R or S)-2-(3-(3-((2-(tert-butyl)-1,1-dioxido-2,3-dihydrobenzo[d]isothiazol-5-yl)amino)-4-oxo-4,5-dihydro-1H-pyrazolo[4,3-c]pyridin-1-yl)tetrahydrofuran-3-yl)acetonitrile], the IC50 in assay [1] amounted to 0.39 nM; in assay [2] it was 9.56 nM.

On to `CC(C)(C)OC(=O)[C@@H]1CC[C@@](CC#N)(n2nc(Nc3ccccc3)c3c(=O)[nH]ccc32)CO1` [Example 5-54, (2S,5S)-tert-butyl 5-(cyanomethyl)-5-(4-oxo-3-(phenylamino)-4,5-dihydro-1H-pyrazolo[4,3-c]pyridin-1-yl)tetrahydro-2H-pyran-2-carboxylate], for which the IC50 is 0.12 nM in assay [1] and 1.62 nM in assay [2].

`N#CCC1(n2nc(Nc3ccc(C(N)C(F)(F)F)cc3)c3c(=O)[nH]ccc32)CCCC1` (single isomer, unassigned) [Example 5-89, (R or S)-2-(1-(3-((4-(1-amino-2,2,2-trifluoroethyl)phenyl)amino)-4-oxo-4,5-dihydro-1H-pyrazolo[4,3-c]pyridin-1-yl)cyclopentyl)acetonitrile]: the figures for the IC50 in assay [1] and in assay [2] were 0.5 nM and 1.74 nM, respectively.

As to `CC(C)(C)OC(=O)[C@@H]1CC[C@@](CC#N)(n2nc(Nc3ccc4c(c3)CN(C3CCCC3)C4=O)c3c(=O)[nH]ccc32)CO1` [Example 5-102, (2S,5S)-tert-butyl 5-(cyanomethyl)-5-(3-((2-cyclopentyl-1-oxoisoindolin-5-yl)amino)-4-oxo-4,5-dihydro-1H-pyrazolo[4,3-c]pyridin-1-yl)tetrahydro-2H-pyran-2-carboxylate], the IC50 in assay [1] was 0.1 nM; in assay [2] it was 0.2 nM.

Consider `CN(C(C)(C)C)S(=O)(=O)c1ccc(Nc2nn(C3(CC#N)CCN(C(=O)C(C)(F)F)CC3)c3cc[nH]c(=O)c23)cc1` [Example 5-58, N-(tert-butyl)-4-((1-(4-(cyanomethyl)-1-(2,2-difluoropropanoyl)piperidin-4-yl)-4-oxo-4,5-dihydro-1H-pyrazolo[4,3-c]pyridin-3-yl)amino)-N-methylbenzenesulfonamide], for which the IC50 in assay [1] worked out at 0.14 nM; in assay [2] it was 0.18 nM.

Turning to `CN(C)S(=O)(=O)c1ccc(Nc2nn([C@]3(CC#N)COCC[C@@H]3F)c3cc[nH]c(=O)c23)cc1` (single isomer, unassigned) [Example 5-180, 4-({1-[(3R,4S or 3S,4R)-3-(cyanomethyl)-4-fluorotetrahydro-2H-pyran-3-yl]-4-oxo-4,5-dihydro-1H-pyrazolo[4,3-c]pyridin-3-yl}amino)-N,N-dimethylbenzene-sulfonamide], the IC50 in assay [1] is 0.84 nM; in assay [2], 1.84 nM.

For the molecule `CO[C@@H](c1ccc(Nc2nn([C@]3(CC#N)CC[C@@H](C(=O)OC(C)(C)C)OC3)c3cc[nH]c(=O)c23)cc1)C(F)(F)F` (single isomer, unassigned) [Example 21-8, (2S,5S)-tert-butyl 5-(cyanomethyl)-5-(4-oxo-3-((4-((S or R)-2,2,2-trifluoro-1-methoxyethyl)phenyl)amino)-4,5-dihydro-1H-pyrazolo[4,3-c]pyridin-1-yl)tetrahydro-2H-pyran-2-carboxylate], the IC50 was 0.38 nM in assay [1] and 1.03 nM in assay [2].

With `CC(C)OC(=O)C(C)(C)C(O)(c1ccc(Nc2nn([C@]3(CC#N)CC[C@@H](C(=O)OC(C)(C)C)OC3)c3cc[nH]c(=O)c23)cc1)C(F)(F)F` (single isomer, unassigned) [Example 5-162, (2S,5S)-tert-butyl 5-(cyanomethyl)-5-(4-oxo-3-((4-((S or R)-1,1,1-trifluoro-2-hydroxy-4-isopropoxy-3,3-dimethyl-4-oxobutan-2-yl)phenyl)amino)-4,5-dihydro-1H-pyrazolo[4,3-c]pyridin-1-yl)tetrahydro-2H-pyran-2-carboxylate], the values for the IC50 in assay [1] and in assay [2] were 2.76 nM and 12.9 nM, respectively.

For the molecule `CC(C)(C)OC(=O)[C@@H]1CC[C@@](CC#N)(n2nc(Nc3ccc(Cn4nccn4)cc3)c3c(=O)[nH]ccc32)CO1` [Example 5-97, (2S,5S)-tert-butyl 5-(3-((4-((2H-1,2,3-triazol-2-yl)methyl)phenyl)amino)-4-oxo-4,5-dihydro-1H-pyrazolo[4,3-c]pyridin-1-yl)-5-(cyanomethyl) tetrahydro-2H-pyran-2-carboxylate], the figures for the IC50 in assay [1] and in assay [2] were 0.09 nM and 0.14 nM, respectively.

In the case of `CN(C)S(=O)(=O)c1ccc(Nc2nn(C3(CC#N)CCCC3)c3cc[nH]c(=O)c23)cc1` [Example 5-123], the figures for the IC50 in assay [1] and in assay [2] were 0.23 nM and 0.46 nM, respectively.

For the molecule `Cc1cc(Nc2nn([C@@]3(CC#N)CCCC[C@H]3F)c3cc[nH]c(=O)c23)ccc1C(=O)N1CCSCC1` [Example 5-154, 2-((1R,2R)-2-fluoro-1-(3-((3-methyl-4-(thiomorpholine-4-carbonyl)phenyl)amino)-4-oxo-4,5-dihydro-1H-pyrazolo[4,3-c]pyridin-1-yl)cyclohexyl)acetonitrile], the IC50 is 0.09 nM in assay [1] and 0.08 nM in assay [2].

As for `CO[C@H]1CCN(C(=O)c2ccc(Nc3nn([C@]4(CC#N)CCCOC4)c4cc[nH]c(=O)c34)cc2C)C1` [Example 5-116, 2-((S)-3-(3-((4-((S)-3-methoxypyrrolidine-1-carbonyl)-3-methylphenyl)amino)-4-oxo-4,5-dihydro-1H-pyrazolo[4,3-c]pyridin-1-yl)tetrahydro-2H-pyran-3-yl)acetonitrile], the IC50 in assay [1] is 0.61 nM; in assay [2], 1.22 nM.

Turning to `CC(C)(C)OC(=O)[C@@H]1CC[C@@](CC#N)(n2nc(Nc3ccc(C4(C(F)(F)F)CCNC4)cc3)c3c(=O)[nH]ccc32)CO1` (single isomer, unassigned) [Example 5-285, (2S,5S)-tert-butyl 5-(cyanomethyl)-5-(4-oxo-3-((4-((R or S)-3-(trifluoromethyl)pyrrolidin-3-yl)phenyl)amino)-4,5-dihydro-1H-pyrazolo[4,3-c]pyridin-1-yl)tetrahydro-2H-pyran-2-carboxylate], the half-inhibitory concentration (IC50) in assay [1] turned out to be 0.15 nM; in assay [2] it was 0.21 nM.

On to `CN(C)S(=O)(=O)c1ccc(Nc2nn([C@]3(CC#N)CCCOC3)c3cc[nH]c(=O)c23)cc1` [Example 5-28, (S)-4-((1-(3-(cyanomethyl)tetrahydro-2H-pyran-3-yl)-4-oxo-4,5-dihydro-1H-pyrazolo[4,3-c]pyridin-3-yl)amino)-N,N-dimethyl benzenesulfonamide], for which the IC50 in assay [1] was 0.13 nM; in assay [2], 0.29 nM.

On to `CC(C)(C)OC(=O)[C@@H]1CC[C@@](CC#N)(n2nc(Nc3cnc4ccccc4c3)c3c(=O)[nH]ccc32)CO1` [Example 5-221, (2S,5S)-tert-butyl 5-(cyanomethyl)-5-(4-oxo-3-(quinolin-3-ylamino)-4,5-dihydro-1H-pyrazolo[4,3-c]pyridin-1-yl)tetrahydro-2H-pyran-2-carboxylate], for which the half-inhibitory concentration (IC50) was 0.35 nM in assay [1] and 5.29 nM in assay [2].

For the molecule `N#CC[C@]1(n2nc(Nc3ccc4nccc(F)c4c3)c3c(=O)[nH]ccc32)CCOC1` (single isomer, unassigned) [Example 5-246, [(3S or 3R)-3-{3-[(4-fluoroquinolin-6-yl)amino]-4-oxo-4,5-dihydro-1H-pyrazolo[4,3-c]pyridin-1-yl}tetrahydrofuran-3-yl]acetonitrile], the figures for the IC50 in assay [1] and in assay [2] were 16.8 nM and 172 nM, respectively.

With `Cc1cc(Nc2nn([C@]3(CC#N)CC[C@@H](C(=O)OC(C)(C)C)OC3)c3cc[nH]c(=O)c23)ccc1C(=O)N1CCOCC1C` (single isomer, unassigned) [Example 20-8, (2S,5S)-tert-butyl 5-(cyanomethyl)-5-(3-((3-methyl-4-((S or R)-3-methylmorpholine-4-carbonyl)phenyl)amino)-4-oxo-4,5-dihydro-1H-pyrazolo[4,3-c]pyridin-1-yl)tetrahydro-2H-pyran-2-carboxylate], the IC50 is 0.15 nM in assay [1] and 0.16 nM in assay [2].

Consider `CC(C)(C)N[C@H](c1ccc(Nc2nn([C@@]3(CC#N)CCOC[C@H]3F)c3cc[nH]c(=O)c23)cc1)C(F)(F)F` (single isomer, unassigned) [Example 5-267, 2-((3S,4S or 3R,4R)-4-(3-((4-((R or S)-1-(tert-butylamino)-2,2,2-trifluoroethyl)phenyl)amino)-4-oxo-4,5-dihydro-1H-pyrazolo[4,3-c]pyridin-1-yl)-3-fluorotetrahydro-2H-pyran-4-yl)acetonitrile], for which the results for the IC50 in assay [1] and in assay [2] were 2.42 nM and 4.02 nM, respectively.

For `CN(C)S(=O)(=O)c1ccc(Nc2nn(C3(CC#N)CCN(Cc4ccc(F)cc4)CC3)c3cc[nH]c(=O)c23)cc1` [Example 8-7, 4-({1-[4-(cyanomethyl)-1-(4-fluorobenzyl)piperidin-4-yl]-4-oxo-4,5-dihydro-1H-pyrazolo[4,3-c]pyridin-3-yl}amino)-N,N-dimethylbenzenesulfonamide], the IC50 was found to be 0.21 nM in assay [1] and 0.63 nM in assay [2].

Turning to `Cc1cc(Nc2nn([C@]3(CC#N)CC[C@@H](C(=O)OC(C)(C)C)OC3)c3cc[nH]c(=O)c23)ccc1C(=O)N1CCSC1` [Example 5-155, (2S,5S)-tert-butyl 5-(cyanomethyl)-5-(3-((3-methyl-4-(thiazolidine-3-carbonyl)phenyl)amino)-4-oxo-4,5-dihydro-1H-pyrazolo[4,3-c]pyridin-1-yl)tetrahydro-2H-pyran-2-carboxylate], the IC50 in assay [1] was 0.18 nM; in assay [2], 0.39 nM.
